The record followed here is patent US7279548B2, “Identification and isolation of novel polypeptides having WW domains and methods of using same” (Cytogen Corporation, priority 1996, dated 2007).

No end group written: not given here. *: point of attachment. Biotin = O=C1N[C@H]2[C@H](CS[C@H]2CCCCC(=O)*)N1

The assay relates to WW domains of WWP1 expressed as GST fusion proteins. Description: ELISA based cross affinity mapping, WW domains of WWP1. The assay is classed as binding, human. The following applies: biotinylated peptide-streptavidin/alkaline phosphatase complex; GST fusion proteins; ELISA. The protocol: The 16 day mouse embryo cDNA expression library was diluted 1:1000 in SM solution (100 mM NaCl, 8 mM MgSOv4, 50 mM Tris HCl pH 7.5, 0.01% gelatin). To a sterile test tube, 2 μl of diluted mouse embryo library, 100 μl of 10 mM CaCl2, 100 μl of 10 mM MgCl2 and 100 μl of BL21(DE3)pLysE bacterial cells (grown overnight) were added and incubated for 30 minutes at 37° C. The contents of the tube were mixed with 3 ml of 0.6% top agarose, containing […] chloramphenicol, and poured onto a 2xYT plate (90 mm diameter). For a large primary screen, 10–20 plates were prepared with 3×10^4 pfu per plate. After 6 hours incubation at 37° C., a nitrocellulose filter soaked in 10 mM isopropyl-β-D-thiogalactopyranoside (IPTG) was overlaid on each plate and incubated 3–6 hours at 37° C. Before the filters were removed from the plates, they were marked asymmetrically with India ink in a 18 gauge syringe needle. The plates were stored at 4° C. until ready for the secondary screen. The filters were washed with PBS (137 mM NaCl, 2.7 mM KCl, 4.3 mM Na2HPO4, 1.4 mM KH2PO4)-0.05% Triton X-100 three times at room temperature, 15 minutes each wash, and then placed in a plastic bag containing non-specific blocking solution (PBS-2% BSA) for one hour. In the meantime, 1 ml of 1 mM biotinylated peptide in PBS-0.1% Tween 20 was added to 20 ml of 1 mg/ml streptavidin-alkaline phosphatase (SA-AP) in PBS-0.1% Tween 20 and incubated at 4° C. for 30 minutes. […] Excess biotin-binding sites would then be blocked by addition of 500 pmol biotin. […] Ten μl of 0.1 mM biotin would then be added, and the solution incubated for an additional 15 min.
To determine the ligand preferences of the novel WW omain-containing clones described in Sections 6.1 and 6.1.1, as well as addressing the issue of whether peptides containing PPPPY (SEQ ID NO:3)-like motifs derived from a variety of proteins could also serve as recognition units and bind to these clones, a cross affinity mapping experiment was performed (FIGS. 15A–D). The peptides shown in FIGS. 15A–D were synthesized, biotinylated, complexed with streptavidin-alkaline phosphatase, and tested in an ELISA based assay for their ability to bind to the twelve individual novel WW domains of WWP1, WWP2, WWP3 and WWP4 which were expressed as GST fusion proteins. The ELISA based cross-affinity experiments were performed essentially as described by Sparks et al. (1996, Proc. Natl. Acad. Sci. 93:1540–1544) with the following modifications. Briefly, microtiter wells were coated with 1–5 μg of fusion protein in 100 mM NaHCO3, blocked with SuperBlock TBS (Pierce) and washed four times with PBS, 0.05% Tween 20. Specific peptide-streptavidin/alkaline phosphatase complexes were added as above and unbound complexes washed five times with PBS, 0.05% Tween 20. Following addition of PNP substrate (p-nitrophenyl phosphate, Kirkegard & Perry Labs), peptide binding was quantitated after 30 min. at O.D. 405 nm. Relative binding measurements from three independent determinations were assigned to a scale as follows: O.D. units 0–0.5=(−), 0.5–1.0=(+), 1.0–2.0=(++), 2.0–3.0=(+++), >3.0=(++++). Peptide binding to human Fyn and Lyn SH3 and SH2 domains was assessed by a filter binding assay (see Section 6.1 and Sparks et al., 1996, Proc. Natl. Acad. Sci 93:1540–1544). Peptide sequences used in cross-affinity experiments correspond to segments of the following genes: RasGap (Database accession # P20936), AP-2 (P05549), p53BP-2 (U09582), IL-6Rα (P22272), voltage-gated chloride channel CLCN5 (X91906), IL-2Rγ (D111086), RSV (D10652), HTLV-1 (D13784), β-dystroglycan (L19711), Formin (X53599), amiloride-sensitive epithelial Na^+ channel ENaCα (P37089), ENaCβ (X87159) and ENaCγ (X87160), muscarinic acetylcholine receptor M4 AChR (P08173), and c-Abl (P00522). Src and Crk SH3 binding peptide sequences were derived from a phage display random peptide library screen (Section 6.1 and Sparks et al., 1996, Proc. Natl. Acad. Sci. 93:1540–1544).
(ELISA stands for enzyme-linked immunosorbent assay.)

As to Biotin-SGSGPGTPPPPYTVGPGY [WBP-1], the “binding to WW domains of WWP1” value is “specifically bind”. The entry for Biotin-SGSGPGTPYPPPPEFY [WBP-2B] is “none of the WW domains of these proteins specifically bind”; for Biotin-SGSGYVQPPPPPYPGPM [WBP-2A] it is “specifically bind”.
